Experimental data: PubChem BioAssay (NCI)
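Briefly, cells in 96-well plates were exposed to five compound concentrations for 48 h, and endpoints were estimated by linear interpolation. At the GI50, growth is halved. TGI denotes the concentration required for complete inhibition of growth.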

What was measured:
Test in all cases: growth of human tumour cells (NCI), 48 h
SF-295 CNS = test system: SF-295 CNS
CAKI-1 renal = test system: CAKI-1 renal
MDA-MB-231 breast = test system: MDA-MB-231 breast
SK-MEL-2 melanoma = test system: SK-MEL-2 melanoma
NCI/ADR-RES ovarian = test system: NCI/ADR-RES ovarian
COLO 205 colon = test system: COLO 205 colon
EKVX NSCLC = test system: EKVX NSCLC
U251 CNS = test system: U251 CNS
HOP-62 NSCLC = test system: HOP-62 NSCLC
A498 renal = test system: A498 renal

Row | Compound | TGI (SF-295 CNS) | TGI (CAKI-1 renal) | TGI (MDA-MB-231 breast) | TGI (SK-MEL-2 melanoma) | TGI (NCI/ADR-RES ovarian) | TGI (COLO 205 colon) | TGI (EKVX NSCLC) | TGI (U251 CNS) | TGI (HOP-62 NSCLC) | TGI (A498 renal) | GI50 (SF-295 CNS) | GI50 (CAKI-1 renal) | GI50 (MDA-MB-231 breast) | GI50 (SK-MEL-2 melanoma) | GI50 (NCI/ADR-RES ovarian) | GI50 (COLO 205 colon) | GI50 (EKVX NSCLC) | GI50 (U251 CNS) | GI50 (HOP-62 NSCLC) | GI50 (A498 renal)
1 | Cc1c(NC(=O)Nc2c(Cl)cccc2Cl)c(=O)n(-c2ccccc2)n1C | > 100 µM | > 100 µM | > 100 µM | > 100 µM | > 100 µM | > 100 µM | > 100 µM | > 100 µM | > 100 µM | > 100 µM | – | – | – | – | – | – | – | – | – | –
2 | CC(C)c1[nH]nc2c(NCc3ccc(-c4ccccn4)cc3)nc(SCCN(C)C)nc12 | 1.92 µM | 19.4 µM | 8.3 µM | 0.269 µM | 11.4 µM | 0.0297 µM | 2.54 µM | 10.7 µM | 0.236 µM | 0.164 µM | 0.0799 µM | 0.37 µM | 0.0257 µM | 0.0798 µM | 0.13 µM | < 0.015 µM | 0.0494 µM | 0.0474 µM | < 0.0177 µM | 0.0563 µM
3 | C#CCOc1cccc(Nc2ncnc3cc(NC(=O)C=C)ccc23)c1 | > 100 µM | > 100 µM | > 100 µM | > 100 µM | > 100 µM | > 100 µM | > 100 µM | > 100 µM | > 100 µM | 46.6 µM | 14.6 µM | 6.08 µM | 6.47 µM | 20.9 µM | 9.66 µM | 5.41 µM | 14.8 µM | 17.4 µM | 13.4 µM | 4.25 µM
4 | CCC[n+]1cc2cc3c(cc2c2c1-c1cc4c(cc1C2)OCO4)OCO3 (tested in a mixture with another compound) | 6.37 µM | > 91.8 µM | 12.1 µM | 2.35 µM | > 100 µM | 3.79 µM | 19.2 µM | 3.32 µM | 6.53 µM | 25.7 µM | 0.47 µM | 25.8 µM | 2.39 µM | 0.53 µM | > 85.5 µM | 0.49 µM | 2.18 µM | 0.229 µM | 0.546 µM | 11.2 µM
5 | CCn1cc(C(=O)N/N=C/c2cccs2)c(=O)c2cc(F)c(N3CCNC(C)C3)c(F)c21 (centres undefined) | 3.45 µM | 3.03 µM | 2.85 µM | 3.95 µM | 3.48 µM | 3.52 µM | 2.93 µM | 3.06 µM | 3.17 µM | 21.1 µM | 1.85 µM | 1.66 µM | 1.52 µM | 1.96 µM | 1.8 µM | 1.78 µM | 1.47 µM | 1.67 µM | 1.59 µM | 3.64 µM
6 | C=CCC(N[C@H](CO)c1ccccc1)c1ccccn1 (some centres undefined) | > 100 µM | > 100 µM | > 100 µM | > 100 µM | > 100 µM | > 100 µM | > 100 µM | > 100 µM | > 100 µM | > 100 µM | > 100 µM | > 100 µM | > 100 µM | > 100 µM | > 100 µM | > 100 µM | > 100 µM | > 100 µM | > 100 µM | > 100 µM
7 | CNCC(=O)NC(CO)C(=O)NC(CO)C(=O)NC1C(C(N)=O)OC(n2ccc(N)nc2=O)C(O)C1O (centres undefined) | 17 µg/mL | > 50 µg/mL | > 50 µg/mL | 23.7 µg/mL | 28 µg/mL | > 50 µg/mL | 31.8 µg/mL | > 50 µg/mL | 32.3 µg/mL | > 50 µg/mL | 2.78 µg/mL | 15.7 µg/mL | > 50 µg/mL | 4.58 µg/mL | 5.79 µg/mL | > 50 µg/mL | 7.9 µg/mL | 10.9 µg/mL | 6.44 µg/mL | 13 µg/mL
8 | Cn1c2c(c3ccccc3c1=O)C(=O)c1ccccc1-2 | > 100 µM | > 100 µM | > 100 µM | > 100 µM | > 100 µM | > 100 µM | > 100 µM | > 100 µM | > 100 µM | > 100 µM | – | – | – | – | – | – | – | – | – | –
9 | OC(CN1CCCC2CCCCC21)c1cc2ccccc2c2ccccc12 (centres undefined) | 3.21 µM | 8.15 µM | 4.06 µM | 3.31 µM | 5.19 µM | 2.9 µM | 3.54 µM | 3.77 µM | 3.91 µM | 5.8 µM | 1.45 µM | 2.36 µM | 1.69 µM | 1.67 µM | 2.07 µM | 1.45 µM | 1.56 µM | 1.85 µM | 1.84 µM | 2.21 µM
10 | COc1cccc(N2CCN(c3ncnc4cc[nH]c34)CC2)c1 | 43 µM | > 100 µM | > 100 µM | 50.9 µM | 40.4 µM | 45.5 µM | > 100 µM | > 100 µM | > 100 µM | 79.3 µM | 1.57 µM | 5.75 µM | 79.9 µM | 10.3 µM | 2.87 µM | 11.2 µM | 0.94 µM | 12.7 µM | 17.8 µM | 1.65 µM
11 | NC(Cc1cccnn1)C(=O)O (centres undefined) | > 100 µM | > 100 µM | > 100 µM | > 100 µM | > 100 µM | > 100 µM | > 100 µM | > 100 µM | > 100 µM | > 100 µM | – | – | – | – | – | – | – | – | – | –
12 | O=C1C(Cl)=C(Nc2cc(Cl)ccc2O)C(=O)N1Cc1ccccc1 | 38.4 µM | 40.9 µM | 33.2 µM | 53.3 µM | 37.4 µM | 44.3 µM | 50.5 µM | 29.6 µM | > 61 µM | 35.7 µM | 18.3 µM | 18.3 µM | 17.5 µM | 20.3 µM | 18.9 µM | 18.3 µM | 21.3 µM | 15.8 µM | 34 µM | 19.7 µM
13 | C[C@H]1COCCN1c1nc(-c2cnc(N)cc2C(F)F)nc(N2CCOCC2)n1 | 0.645 µM | – | 48.5 µM | 1.12 µM | > 21.7 µM | 19.8 µM | 2 µM | > 100 µM | > 100 µM | 0.164 µM | 0.119 µM | 0.102 µM | 0.177 µM | 0.232 µM | 0.253 µM | 0.179 µM | 0.178 µM | 0.368 µM | 0.414 µM | 0.0301 µM
